From US20170029841A1, “METHODS AND COMPOSITIONS FOR SELECTIVE REGULATION OF PROTEIN EXPRESSION” (priority 2015, published 2017) come the findings set out here.

The test system of this data set is maize tissue pools (tassel, ear, leaf, root, stem). In words: siRNA profiling microarray assay of mts-siRNA sequences across maize tissues. The note with it: for 01DKD2 V8-V9 Tassel relative signal value: germplasm 01DKD2, V8-V9 tassel; for 01DKD2 V10-V12 Tassel relative signal value: germplasm 01DKD2, V10-V12 tassel; for 01DKD2 Other Tissue relative signal value: germplasm 01DKD2, combined signals from other tissue; for LH244 V8-V9 Tassel relative signal value: germplasm LH244, V8-V9 tassel; for LH244 V10-V12 Tassel relative signal value: germplasm LH244, V10-V12 tassel; for LH244 Other Tissue relative signal value: germplasm LH244, combined signals from other tissue. On the procedure: A siRNA profiling microarray assay was performed using μParaflo® Microfluidics chips provided by LC Sciences LLC (Houston, Tex., USA) with 1,200 sequences selected from the thousands of mts-siRNA sequences identified from the differential bioinformatic analysis. The microarray chips contained triplicate probes of the complementary sequence for each of the 1,200 mts-siRNA sequences. Total RNA was purified from 26 maize tissue pools (duplicate or triplicate tissue pools) from either LH244 (ATCC deposit number PTA-1173) or 01DKD2 (I294213) (ATCC deposit number PTA-7859) inbred plants. Each of the 26 RNA samples were hybridized with the microarray chips that contain probes for the 1,200 mts-siRNA. Hybridization images were collected using a GenePix® 4000B laser scanner (Molecular Devices, Sunnyvale, Calif.) and digitized using Array-Pro® Analyzer image analysis software (Media Cybernetics, Rockville, Md.). Relative signal values were derived by background subtraction and normalization. Differentially expressed signals were determined by t-test with p<0.05. From the microarray analysis, about 500 mts-siRNA from the 1,200 were identified as being highly tassel-specific.
Selected mts-siRNA sequences aligning to one of the six cDNA sequences were used for further microarray analysis to determine differential expression across maize tissues. Microarray analysis for mts-siRNA sequences of normalized signal values for V8-V9 tassel, V10-V12 tassel, or combined signals from the other tissue for maize germplasm LH244 and 01DKD2 is presented in Tables 3-10. […] Signal value results are measured as relative signal values and standard error (p<0.05) is represented by (STDR). […] The mts-siRNA sequence corresponds to the sense or antisense strand of the corresponding mts-siRNA target sequence in the cDNA sequence. The mts-siRNA sequence may have a single nucleotide, a two nucleotide, or a three nucleotide mismatch with the aligned portion of the cDNA sequence, and the mts-siRNA sequence may align to the sense strand or antisense strand of the cDNA sequence. The mts-siRNA sequences provided here are found across different maize germplasms.

With “SEQ ID NO: 65: mts-siRNA sequence aligning to cDNA SEQ ID NO: 21 (CGAATTGATTCCACCCATTCC; expressed or natural sequence)”, the “01DKD2 V8-V9 Tassel relative signal value” is 444.5, the “01DKD2 V10-V12 Tassel relative signal value” came out at 454.5, the “01DKD2 Other Tissue relative signal value” turned out to be 12 and the “LH244 V8-V9 Tassel relative signal value” is reported as 811.5. Besides, the “LH244 V10-V12 Tassel relative signal value” is given as 260.3 and the “LH244 Other Tissue relative signal value” is listed as 5.8.

“SEQ ID NO: 38: mts-siRNA sequence aligning to cDNA SEQ ID NO: 18 (CTCAACATCCGATTCACCCTCA; expressed or natural sequence)”: the “01DKD2 V8-V9 Tassel relative signal value” was 8.5, the “01DKD2 V10-V12 Tassel relative signal value” worked out at 1305.5, the “01DKD2 Other Tissue relative signal value” worked out at 3 and the “LH244 V8-V9 Tassel relative signal value” was 768.5. The “LH244 V10-V12 Tassel relative signal value” is 1442.7 and the “LH244 Other Tissue relative signal value” was determined as 1.4.

On to “SEQ ID NO: 85: mts-siRNA sequence aligning to cDNA SEQ ID NO: 22 (CAAGGCAAGAAGGTGCTTGTTGT; expressed or natural sequence)”, for which the “01DKD2 V8-V9 Tassel relative signal value” is 2.5, the “01DKD2 V10-V12 Tassel relative signal value” worked out at 246, the “01DKD2 Other Tissue relative signal value” is recorded as 2.5 and the “LH244 V8-V9 Tassel relative signal value” is 184. Further, the “LH244 V10-V12 Tassel relative signal value” was found to be 310 and the “LH244 Other Tissue relative signal value” turned out to be 2.8.

On to “SEQ ID NO: 54: mts-siRNA sequence aligning to cDNA SEQ ID NO: 20 (CATCGTCGTGCAGCTGGT; expressed or natural sequence)”, for which the “01DKD2 V8-V9 Tassel relative signal value” is listed as 56, the “01DKD2 V10-V12 Tassel relative signal value” stood at 231, the “01DKD2 Other Tissue relative signal value” is 19.5 and the “LH244 V8-V9 Tassel relative signal value” was found to be 100.5. In addition, the “LH244 V10-V12 Tassel relative signal value” turned out to be 172 and the “LH244 Other Tissue relative signal value” amounted to 14.2.

“SEQ ID NO: 23: mts-siRNA sequence aligning to cDNA SEQ ID NO: 17 (CATCACCATGCACGGTCGTCGT; expressed or natural sequence)”: the “01DKD2 V8-V9 Tassel relative signal value” stood at 27, the “01DKD2 V10-V12 Tassel relative signal value” worked out at 318, the “01DKD2 Other Tissue relative signal value” worked out at 4.3 and the “LH244 V8-V9 Tassel relative signal value” turned out to be 183.5. For the same substance, the “LH244 V10-V12 Tassel relative signal value” is 514 and the “LH244 Other Tissue relative signal value” is recorded as 2.6.

“SEQ ID NO: 72: mts-siRNA sequence aligning to cDNA SEQ ID NO: 22 (GGCCTCCCTTCCCTATGGTAGCC; expressed or natural sequence)”: the “01DKD2 V8-V9 Tassel relative signal value” was 332.5, the “01DKD2 V10-V12 Tassel relative signal value” was 530, the “01DKD2 Other Tissue relative signal value” is given as 233.3 and the “LH244 V8-V9 Tassel relative signal value” turned out to be 323.5. The “LH244 V10-V12 Tassel relative signal value” stood at 325.7 and the “LH244 Other Tissue relative signal value” was 1324.8.

In the case of “SEQ ID NO: 67: mts-siRNA sequence aligning to cDNA SEQ ID NO: 21 (CCTATCTAGTGTATGACCAAT; expressed or natural sequence)”, the “01DKD2 V8-V9 Tassel relative signal value” was 123.5, the “01DKD2 V10-V12 Tassel relative signal value” was found to be 107, the “01DKD2 Other Tissue relative signal value” was 4.3 and the “LH244 V8-V9 Tassel relative signal value” is listed as 216. The “LH244 V10-V12 Tassel relative signal value” amounted to 62 and the “LH244 Other Tissue relative signal value” worked out at 3.3.

For the substance “SEQ ID NO: 39: mts-siRNA sequence aligning to cDNA SEQ ID NO: 18 (CATCGACCAATGACATTCCCTC; expressed or natural sequence)”, the “01DKD2 V8-V9 Tassel relative signal value” came out at 16, the “01DKD2 V10-V12 Tassel relative signal value” was determined as 1514.5, the “01DKD2 Other Tissue relative signal value” worked out at 1.5 and the “LH244 V8-V9 Tassel relative signal value” came to 442.5. For the same substance, the “LH244 V10-V12 Tassel relative signal value” was 2157.3 and the “LH244 Other Tissue relative signal value” was 0.6.

Take “SEQ ID NO: 69: mts-siRNA sequence aligning to cDNA SEQ ID NO: 21 (GCTCATAAAATCACTGTTCAT; expressed or natural sequence)”: the “01DKD2 V8-V9 Tassel relative signal value” amounted to 309.5, the “01DKD2 V10-V12 Tassel relative signal value” was determined as 282.5, the “01DKD2 Other Tissue relative signal value” came out at 9.8 and the “LH244 V8-V9 Tassel relative signal value” came to 516. In addition, the “LH244 V10-V12 Tassel relative signal value” came to 185 and the “LH244 Other Tissue relative signal value” is 11.2.

As for “SEQ ID NO: 53: mts-siRNA sequence aligning to cDNA SEQ ID NO: 20 (CCATGTAATACACAGTGTCGTC; expressed or natural sequence)”, the “01DKD2 V8-V9 Tassel relative signal value” amounted to 16, the “01DKD2 V10-V12 Tassel relative signal value” is listed as 84, the “01DKD2 Other Tissue relative signal value” is 1.5 and the “LH244 V8-V9 Tassel relative signal value” was determined as 76.5. Also, the “LH244 V10-V12 Tassel relative signal value” was 145 and the “LH244 Other Tissue relative signal value” is 2.2.

In the case of “SEQ ID NO: 68: mts-siRNA sequence aligning to cDNA SEQ ID NO: 21 (GAACAGTGATTTTATGAGCAA; expressed or natural sequence)”, the “01DKD2 V8-V9 Tassel relative signal value” came to 98, the “01DKD2 V10-V12 Tassel relative signal value” was 96, the “01DKD2 Other Tissue relative signal value” is reported as 2.5 and the “LH244 V8-V9 Tassel relative signal value” is 265. Also, the “LH244 V10-V12 Tassel relative signal value” is given as 85.3 and the “LH244 Other Tissue relative signal value” was 5.

“SEQ ID NO: 46: mts-siRNA sequence aligning to cDNA SEQ ID NO: 19 (CAGCTAATACGACGACCATTTAGG; expressed or natural sequence)”: the “01DKD2 V8-V9 Tassel relative signal value” worked out at 252, the “01DKD2 V10-V12 Tassel relative signal value” came out at 6778, the “01DKD2 Other Tissue relative signal value” is recorded as 6.8 and the “LH244 V8-V9 Tassel relative signal value” worked out at 4502.5. The “LH244 V10-V12 Tassel relative signal value” is 8663.3 and the “LH244 Other Tissue relative signal value” came out at 8.4.

“SEQ ID NO: 42: mts-siRNA sequence aligning to cDNA SEQ ID NO: 18 (ACTACAGTGAGAGTCTAGGAAAGC; expressed or natural sequence)”: the “01DKD2 V8-V9 Tassel relative signal value” worked out at 6, the “01DKD2 V10-V12 Tassel relative signal value” is listed as 588, the “01DKD2 Other Tissue relative signal value” is 5.3 and the “LH244 V8-V9 Tassel relative signal value” was 143.5. Also, the “LH244 V10-V12 Tassel relative signal value” amounted to 564.3 and the “LH244 Other Tissue relative signal value” is 2.6.

In the case of “SEQ ID NO: 48: mts-siRNA sequence aligning to cDNA SEQ ID NO: 19 (AAAGTAGCTAACGACCACACCACC; expressed or natural sequence)”, the “01DKD2 V8-V9 Tassel relative signal value” is listed as 9.5, the “01DKD2 V10-V12 Tassel relative signal value” is given as 470.5, the “01DKD2 Other Tissue relative signal value” was 1 and the “LH244 V8-V9 Tassel relative signal value” was 221. Moreover, the “LH244 V10-V12 Tassel relative signal value” is 720.3 and the “LH244 Other Tissue relative signal value” came out at 4.8.
